Test results from US9981909B2 (Janssen Pharmaceutica NV, priority 2008, dated 2018).
pKi: −log10 of the molar value. Where a name gives a salt, the structure may show the parent alone.

Legend:
r5-HT7 receptor = r5-HT7 receptor (Rattus norvegicus (Rat), UniProt P32305); assay: HitHunter cAMP assay, antagonist testing against 100 nM 5-CT; assay type: cell-based; conditions: antagonist testing, 100 nM 5-CT challenge, HEK-293 r5-HT7; read-out: R5HT7 cAMP pKb (converted)
Protocol: (§1) Receptor binding was performed using membrane fractions prepared from the HEK-293 cell line recombinantly expressing rat 5-HT7 receptors (NCBI accession NM_022938). Compound affinity for the rat 5-HT7 receptor subtype was evaluated by competitive radioligand binding assays using 5-carboxamido[^3H]tryptamine ([^3H]5-CT) (Amersham Biosciences, cat. 90000403) detection. HitHunter™ cAMP assays are in-vitro based competitive immunoassays. The assay was performed on the HEK-293 cell line stably transfected with r5-HT7 receptor. Cells were pre-incubated with test compounds for 10 minutes. For antagonist testing, the cells were then challenged with 100 nM 5-CT for 20 minutes. Cells were then lysed and cAMP measured according to manufacturers protocol (Amersham, cat. NET791250UC) or [^3H]mesulergine (Amersham, cat. TRK1041). The assay was performed on membranes prepared from HEK-293 cells stably transfected with h5-HT6. Following centrifugation, membranes were resuspended and incubated for 60 min at room temperature with 1.7 nM [^3H]LSD in the presence of increasing concentration of test compounds. Nonspecific binding was defined in the presence of 10 μM clozapine (Tocris, cat. TRK1068). Homogenized HEK-293 membranes expressing the human SERT were incubated in 50 mM Tris-HCl (pH 7.5), 120 mM NaCl, 5 mM KCl with [^3H]-citalopram (3 nM) with or without test compounds. Nonspecific binding was determined in the presence of 10 μM fluoxetine. Radioactivity readouts and Ki values were performed as previously described for r5-HT7. […] Compounds were assayed in their free form or as salts, as indicated in the Examples section above.

human SERT = human SERT (Homo sapiens (Human), UniProt P31645); assay: human SERT binding assay with [3H]-citalopram on HEK-293 membranes; conditions: read-out: hSERT binding Ki
human SERT, sequence (P31645 whole entry): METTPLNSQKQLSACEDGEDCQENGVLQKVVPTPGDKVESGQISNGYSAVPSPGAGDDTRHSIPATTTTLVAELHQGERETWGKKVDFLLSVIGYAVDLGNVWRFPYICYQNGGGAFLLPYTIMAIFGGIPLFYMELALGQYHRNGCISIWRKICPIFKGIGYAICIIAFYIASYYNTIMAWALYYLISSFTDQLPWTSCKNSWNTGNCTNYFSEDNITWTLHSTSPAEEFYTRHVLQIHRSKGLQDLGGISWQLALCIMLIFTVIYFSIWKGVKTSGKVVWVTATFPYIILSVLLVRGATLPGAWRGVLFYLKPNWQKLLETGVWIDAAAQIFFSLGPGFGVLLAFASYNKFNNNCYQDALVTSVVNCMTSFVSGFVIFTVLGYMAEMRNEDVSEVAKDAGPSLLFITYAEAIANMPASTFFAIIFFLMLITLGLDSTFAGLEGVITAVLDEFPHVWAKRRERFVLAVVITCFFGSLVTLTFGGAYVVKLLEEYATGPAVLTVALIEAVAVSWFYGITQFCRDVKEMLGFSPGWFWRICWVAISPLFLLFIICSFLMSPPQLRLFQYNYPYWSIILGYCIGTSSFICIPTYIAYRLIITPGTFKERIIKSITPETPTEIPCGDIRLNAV
Protocol: as §1

rat 5-HT7 receptor = rat 5-HT7 receptor (Rattus norvegicus (Rat), UniProt P32305); assay: r5-HT7 binding assay, competitive radioligand binding with [3H]5-CT
rat 5-HT7 receptor, sequence (P32305 1-435): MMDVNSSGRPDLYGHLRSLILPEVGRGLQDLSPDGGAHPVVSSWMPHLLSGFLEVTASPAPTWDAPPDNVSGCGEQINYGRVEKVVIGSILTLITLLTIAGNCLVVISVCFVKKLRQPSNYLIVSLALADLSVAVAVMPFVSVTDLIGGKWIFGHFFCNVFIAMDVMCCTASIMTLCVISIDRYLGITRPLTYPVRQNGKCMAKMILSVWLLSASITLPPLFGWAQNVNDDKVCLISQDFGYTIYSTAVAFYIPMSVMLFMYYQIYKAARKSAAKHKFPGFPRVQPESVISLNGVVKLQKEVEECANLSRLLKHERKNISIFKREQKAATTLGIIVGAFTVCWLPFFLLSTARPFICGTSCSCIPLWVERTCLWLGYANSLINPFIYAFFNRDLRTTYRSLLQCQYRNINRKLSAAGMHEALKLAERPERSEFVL
How it was run: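 Whole r5-HT7-transfected HEK-293 cells first received test compound for 10 min. They were then exposed to 100 nM 5-CT for 20 min before lysis and competitive immunoassay of cAMP. Affinity came from displacement of [3H]5-CT on membranes of the same recombinant line, expressed as Ki.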

[1] = rat 5-HT7 receptor, HEK-293 membranes

r5-HT7 receptor, sequence (P32305 1-435): as above

Structure (SMILES)	Kb (r5-HT7 receptor) [nM]	pKi (human SERT)	pKi (rat 5-HT7 receptor; [1])	pKi (rat 5-HT7 receptor; rat 5-HT7, HEK-293 membranes)
CC(Oc1ccc(Cl)cc1OC1CNC1)c1cccc(C(F)(F)F)c1 (racemic) [Example 105, (±)-3-[5-Chloro-2-[1-(3-trifluoromethyl-phenyl)-ethoxy]-phenoxy]-azetidine]	50.1	6.71	7.64	
CC(Oc1ccc(Br)cc1OC1CNC1)c1cccc(C(F)(F)F)c1 (racemic) [Example 112, (±)-3-[5-Bromo-2-[1-(3-trifluoromethyl-phenyl)-ethoxy]-phenoxy]-azetidine]	31.6		7.64	
CC(Oc1ccc(Cl)cc1OC1CNC1)c1cccc(Cl)c1 (racemic) [Example 114, (±)-3-[5-Chloro-2-[1-(3-chloro-phenyl)-ethoxly]-phenoxy]-azetidine]	31.6	7.12	7.85	
Brc1ccc(OC2CCc3ccccc32)c(OC2CNC2)c1 (racemic) [Example 151, (±)-3-[5-Bromo-2-(indan-1-yloxy)-phenoxy]-azetidine]	31.6		7.40	
Clc1ccc2c(c1)C(Oc1ccc(Br)cc1OC1CNC1)CC2 (racemic) [Example 153, (±)-3-[5-Bromo-2-(6-chloro-indan-1-yloxy)-phenoxy]-azetidine]	63.1		7.08	
Cc1ccc2c(c1)C(Oc1ccc(Br)cc1OC1CNC1)CC2 (racemic) [Example 156, (±)-3-[5-Bromo-2-(6-methyl-indan-1-yloxy)-phenoxy]-azetidine]	> 10000		6.60	
CCCN1CC(Oc2cc(Br)ccc2OCc2cccc(Cl)c2)C1 [Example 4, 3-[5-Bromo-2-(3-chloro-benzyloxy)-phenoxy]-1-propyl-azetidine]	0.631		8.10	
CN1CCC(Oc2cc(Br)ccc2OCc2cccc(Cl)c2)CC1 [Example 66, 4-[5-Bromo-2-(3-chloro-benzyloxy)-phenoxy]-1-methyl-piperidine]	50.1		8.00	
Fc1ccccc1COc1ccc(Br)cc1OC1CCNCC1 [Example 67, 4-[5-Bromo-2-(2-fluoro-benzyloxy)-phenoxy]-piperidine]	398		7.89	
Fc1cccc(COc2ccc(Br)cc2OC2CCNCC2)c1 [Example 68, 4-[5-Bromo-2-(3-fluoro-benzyloxy)-phenoxy]-piperidine]	631		7.77	
CC(Oc1ccc(Cl)cc1OC1CNC1)c1nc2ccccc2s1 (centres unmarked) [Example 131, 2-[1-[2-(Azetidin-3-yloxy)-4-chloro-phenoxy]-ethyl]-benzothiazole]		5.87	7.14	
FCC(Oc1ccc(Br)cc1OC1CNC1)c1ccccc1 (centres unmarked) [Example 142, 3-[5-Bromo-2-(2-fluoro-1-phenyl-ethoxy)-phenoxy]-azetidine]		6.21	7.04	
Clc1ccc(OCC2CCc3ccccc3O2)c(OC2CNC2)c1 (centres unmarked) [Example 165, 3-[5-Chloro-2-(chroman-2-ylmethoxy)-phenoxy]-azetidine]		7.02	7.80	
Clc1ccc(OCCOc2ccccc2)c(OC2CNC2)c1 [Example 171, 3-[5-Chloro-2-(2-phenoxy-ethoxy)-phenoxy]-azetidine]		6.63	8.15	
Fc1ccc2c(c1)CC(Oc1ccc(Cl)cc1OC1CNC1)C2 (centres unmarked) [Example 175, 3-[5-Chloro-2-(5-fluoro-indan-2-yloxy)-phenoxy]-azetidine]		8.40	7.96	
Clc1ccc2c(c1)CC(Oc1ccc(Cl)cc1OC1CNC1)C2 (centres unmarked) [Example 176, 3-[5-Chloro-2-(5-chloro-indan-2-yloxy)-phenoxy]-azetidine]		7.12	7.62	
COc1cccc2c1CC(Oc1ccc(Cl)cc1OC1CNC1)C2 (centres unmarked) [Example 178, 3-[5-Chloro-2-(4-methoxy-indan-2-yloxy)-phenoxy]-azetidine]		6.88	7.77	
CON=C(COc1ccc(Cl)cc1OC1CNC1)c1ccccc1 [Example 182, 2-[2-(Azetidin-3-yloxy)-4-chloro-phenoxy]-1-phenyl-ethanone O-methyl-oxime]		6.29	7.12	
FC(COc1ccc(Cl)cc1OC1CNC1)c1ccccc1 (centres unmarked) [Example 187, 3-[5-Chloro-2-(2-fluoro-2-phenyl-ethoxy)-phenoxy]-azetidine]		6.47	7.44	
Clc1cnc(OCc2ccccc2)c(OC2CNC2)c1 [Example 196, 3-(Azetidin-3-yloxy)-2-benzyloxy-5-chloro-pyridine]		7.28	6.44	

Structure (SMILES)	Kb (r5-HT7 receptor) [nM]	pKi (human SERT)	pKi (rat 5-HT7 receptor; [1])	pKi (rat 5-HT7 receptor; rat 5-HT7, HEK-293 membranes)
CCN1CC(Oc2cc(F)ccc2OCc2cccc(Cl)c2)C1 [Example 207, 3-[2-(3-Chloro-benzyloxy)-5-fluoro-phenoxy]-1-ethyl-azetidine]	15.8		7.70	
Fc1ccc(OCc2ccc(C(F)(F)F)o2)c(OC2CNC2)c1 [Example 208, 3-[5-Fluoro-2-(5-trifluoromethyl-furan-2-ylmethoxy)-phenoxy]-azetidine]		6.52	6.44	
CC1(Oc2cc(Br)ccc2OCc2cccc(Cl)c2)CNC1 [Example 212, 3-[5-Bromo-2-(3-chloro-benzyloxy)-phenoxy]-3-methyl-azetidine]		7.39		7.28
CC(C)C1(Oc2cc(Br)ccc2OCc2cccc(Cl)c2)CNC1 [Example 214, 3-[5-Bromo-2-(3-chloro-benzyloxy)-phenoxy]-3-isopropyl-azetidine]		5.77		5.05
CC1(Oc2cc(Br)ccc2OCc2ccc(C(F)(F)F)o2)CNC1 [Example 216]		7.44		7.80
Clc1ccc(OC2CC(c3ccccc3)C2)c(OC2CNC2)c1 (centres unmarked) [Example 228, 3-[5-Chloro-2-(3-phenyl-cyclobutoxy)-phenoxy]-azetidine]		7.14		8.05
CC(C)(C)N1CC(Oc2cc(Br)ccc2OCc2cccc(F)c2)C1 [Example 229, 3-[5-Bromo-2-(3-fluoro-benzyloxy)-phenoxy]-1-tert-butyl-azetidine]		6.03		8.52
CC(C)(C)N1CC(Oc2cc(Cl)ccc2OCc2cccc(C(F)(F)F)c2)C1 [Example 230, 1-tert-Butyl-3-[5-chloro-2-(3-trifluoromethyl-benzyloxy)-phenoxy]-azetidine]		5.92		8.22
CC(Oc1ccc(Cl)cc1OC1CN(C(C)(C)C)C1)c1cccc(C(F)(F)F)c1 (centres unmarked) [Example 231, 1-tert-Butyl-3-[5-chloro-2-[1-(3-trifluoromethyl-phenyl)-ethoxy]-phenoxy]-azetidine]		5.35		7.82
FC(F)(F)c1ccc(COc2ccc(Br)cc2CC2CNC2)o1 [Example 232, 3-[5-Bromo-2-(5-trifluoromethyl-furan-2-ylmethoxy)-benzyl]-azetidine]		9.00		8.52
Clc1cccc(COc2ccc(Br)cc2OCC2CNC2)c1 [Example 233, 3-[5-Bromo-2-(3-chloro-benzyloxy)-phenoxymethyl]-azetidine]		7.64		7.57
Brc1cccc(Oc2ccc(Br)cc2OC2CNC2)c1 [Example 245, 3-[5-Bromo-2-(3-bromo-phenoxy)-phenoxy]-azetidine]	200			8.05
Clc1ccc(Oc2ccc(Br)cc2OC2CNC2)cc1 [Example 251, 3-[5-Bromo-2-(4-chloro-phenoxy)-phenoxy]-azetidine]	158			7.96
FC(F)(F)Oc1cccc(Oc2ccc(Br)cc2OC2CNC2)c1 [Example 253, 3-[5-Bromo-2-(3-trifluoromethoxy-phenoxy)-phenoxy]-azetidine]	501			7.74
Clc1cccc(Oc2ccc(Cl)cc2OC2CNC2)c1 [Example 257, 3-[5-Chloro-2-(3-chloro-phenoxy)-phenoxy]-azetidine maleate]	501			7.68
Clc1ccc(Oc2ccc(Cl)cc2OC2CNC2)cc1 [Example 258, 3-[5-Chloro-2-(4-chloro-phenoxy)-phenoxy]-azetidine trifluoroacetate]	501			7.64
Clc1ccc(Oc2nc3ccccc3o2)c(OC2CNC2)c1 [Example 262, 2-[2-(Azetidin-3-yloxy)-4-chloro-phenoxy]-benzooxazole]		6.95		7.51
O=C(c1ccc(Cl)cc1)c1ccc(Br)cc1OC1CNC1 [Example 281, [2-(Azetidin-3-yloxy)-4-bromo-phenyl]-(4-chloro-phenyl)-methanone]	316			7.32
O=C(c1cccc(Cl)c1)c1ccc(Br)cc1OC1CNC1 [Example 282, [2-(Azetidin-3-yloxy)-4-bromo-phenyl]-(3-chloro-phenyl)-methanone]	200			7.41
